Data from the supplement of paper PMC12076712.

Assays:
Assay in all cases: pIC50, kinobeads binding competition
[1] = biological target: JAK1 (UniProt P23458)
How it was run: (§1)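 Live Jurkat cells were treated with nine compound concentrations (top 30 μM, 1:4 steps) or DMSO for 60 min at 37 °C before lysis. Alternatively, Jurkat lysate or a 1:1:1:1 HEK293/K-562/HepG2/placenta lysate mix was incubated with nine concentrations (top 30 μM, 1:5 steps) for 60 min at 4 °C. Kinobeads-bound proteins were digested and quantified by TMT10 LC-MS/MS. pIC50 came from logistic dose-response fits (R drc package) of fold changes versus DMSO, in biological duplicates.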

[2] = biological target: LIMK1 (UniProt P53667)
Chain of LIMK1 (P53667 whole entry, looked up): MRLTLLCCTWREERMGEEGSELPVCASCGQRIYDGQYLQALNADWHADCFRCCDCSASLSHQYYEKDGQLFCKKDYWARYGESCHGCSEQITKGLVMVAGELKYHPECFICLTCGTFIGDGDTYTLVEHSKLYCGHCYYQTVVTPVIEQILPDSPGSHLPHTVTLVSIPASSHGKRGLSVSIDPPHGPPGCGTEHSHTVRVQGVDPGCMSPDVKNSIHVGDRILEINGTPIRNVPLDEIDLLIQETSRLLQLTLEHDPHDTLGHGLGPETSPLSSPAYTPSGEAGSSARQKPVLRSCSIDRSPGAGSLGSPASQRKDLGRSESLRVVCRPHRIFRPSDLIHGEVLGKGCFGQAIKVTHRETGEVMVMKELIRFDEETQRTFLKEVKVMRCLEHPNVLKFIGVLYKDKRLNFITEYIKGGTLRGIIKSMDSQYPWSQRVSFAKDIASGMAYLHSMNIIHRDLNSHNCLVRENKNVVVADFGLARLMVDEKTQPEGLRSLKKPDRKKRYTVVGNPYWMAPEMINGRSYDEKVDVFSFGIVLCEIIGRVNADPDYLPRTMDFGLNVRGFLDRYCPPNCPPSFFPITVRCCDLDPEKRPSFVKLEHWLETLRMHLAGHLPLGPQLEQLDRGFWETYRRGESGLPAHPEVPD
How it was run: as §1

[3] = biological target: T1, NEK1 (UniProt Q96PY6)
T1 sequence (whole entry): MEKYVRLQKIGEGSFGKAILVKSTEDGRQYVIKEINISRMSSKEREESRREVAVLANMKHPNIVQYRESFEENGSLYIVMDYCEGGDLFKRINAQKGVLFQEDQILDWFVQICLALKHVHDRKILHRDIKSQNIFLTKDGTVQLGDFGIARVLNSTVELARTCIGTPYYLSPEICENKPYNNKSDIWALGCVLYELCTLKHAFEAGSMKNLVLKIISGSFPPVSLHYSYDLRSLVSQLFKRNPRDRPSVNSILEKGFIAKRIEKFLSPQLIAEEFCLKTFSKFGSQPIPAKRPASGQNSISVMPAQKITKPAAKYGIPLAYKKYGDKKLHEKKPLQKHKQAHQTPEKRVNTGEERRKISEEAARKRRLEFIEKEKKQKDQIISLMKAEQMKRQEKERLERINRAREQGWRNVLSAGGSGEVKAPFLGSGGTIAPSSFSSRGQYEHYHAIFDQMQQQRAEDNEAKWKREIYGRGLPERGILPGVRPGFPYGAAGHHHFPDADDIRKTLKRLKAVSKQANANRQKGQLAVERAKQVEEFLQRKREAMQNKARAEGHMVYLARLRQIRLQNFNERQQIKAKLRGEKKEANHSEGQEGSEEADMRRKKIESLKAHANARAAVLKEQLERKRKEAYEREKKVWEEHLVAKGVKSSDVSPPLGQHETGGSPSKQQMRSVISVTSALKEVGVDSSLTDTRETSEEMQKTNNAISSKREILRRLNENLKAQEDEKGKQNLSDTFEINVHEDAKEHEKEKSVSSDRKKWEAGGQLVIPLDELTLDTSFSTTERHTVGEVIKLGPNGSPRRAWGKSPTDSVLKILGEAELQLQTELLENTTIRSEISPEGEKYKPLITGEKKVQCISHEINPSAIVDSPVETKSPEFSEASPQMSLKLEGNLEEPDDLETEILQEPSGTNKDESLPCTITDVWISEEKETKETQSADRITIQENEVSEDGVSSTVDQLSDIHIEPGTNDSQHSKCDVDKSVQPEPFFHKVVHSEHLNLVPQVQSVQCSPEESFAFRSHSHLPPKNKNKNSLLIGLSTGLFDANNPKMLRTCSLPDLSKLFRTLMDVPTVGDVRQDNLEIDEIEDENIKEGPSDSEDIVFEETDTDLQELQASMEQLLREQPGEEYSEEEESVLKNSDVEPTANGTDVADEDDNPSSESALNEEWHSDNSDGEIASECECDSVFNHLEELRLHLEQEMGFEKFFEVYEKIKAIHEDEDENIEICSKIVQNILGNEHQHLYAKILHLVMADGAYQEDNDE
How it was run: as §1

[4] = biological target: T2, PRKD3 (UniProt O94806)
T2 sequence (whole entry): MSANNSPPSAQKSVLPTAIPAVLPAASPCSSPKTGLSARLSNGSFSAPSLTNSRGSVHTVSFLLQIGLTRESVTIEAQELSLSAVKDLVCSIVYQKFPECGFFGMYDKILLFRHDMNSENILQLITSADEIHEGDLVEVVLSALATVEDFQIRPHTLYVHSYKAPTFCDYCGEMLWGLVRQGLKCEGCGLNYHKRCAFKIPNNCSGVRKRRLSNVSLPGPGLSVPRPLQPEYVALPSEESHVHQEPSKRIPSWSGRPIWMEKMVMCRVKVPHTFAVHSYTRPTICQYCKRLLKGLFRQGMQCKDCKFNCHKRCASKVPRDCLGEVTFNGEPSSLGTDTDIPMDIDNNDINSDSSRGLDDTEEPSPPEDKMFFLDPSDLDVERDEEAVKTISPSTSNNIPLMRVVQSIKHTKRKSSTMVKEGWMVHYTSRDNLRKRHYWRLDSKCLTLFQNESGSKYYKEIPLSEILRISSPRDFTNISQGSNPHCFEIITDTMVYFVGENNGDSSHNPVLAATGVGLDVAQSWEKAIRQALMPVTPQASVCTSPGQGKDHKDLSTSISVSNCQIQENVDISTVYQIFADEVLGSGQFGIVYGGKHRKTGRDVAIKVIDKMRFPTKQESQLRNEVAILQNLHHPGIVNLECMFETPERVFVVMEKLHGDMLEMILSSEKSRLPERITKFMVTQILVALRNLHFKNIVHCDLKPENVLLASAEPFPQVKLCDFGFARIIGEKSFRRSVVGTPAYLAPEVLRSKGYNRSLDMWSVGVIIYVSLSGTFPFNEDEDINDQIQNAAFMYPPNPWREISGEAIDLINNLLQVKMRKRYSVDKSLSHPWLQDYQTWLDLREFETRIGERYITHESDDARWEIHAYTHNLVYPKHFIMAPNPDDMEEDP
How it was run: as §1

[5] = biological target: UniProt P51812
Chain of UniProt P51812 (P51812 whole entry): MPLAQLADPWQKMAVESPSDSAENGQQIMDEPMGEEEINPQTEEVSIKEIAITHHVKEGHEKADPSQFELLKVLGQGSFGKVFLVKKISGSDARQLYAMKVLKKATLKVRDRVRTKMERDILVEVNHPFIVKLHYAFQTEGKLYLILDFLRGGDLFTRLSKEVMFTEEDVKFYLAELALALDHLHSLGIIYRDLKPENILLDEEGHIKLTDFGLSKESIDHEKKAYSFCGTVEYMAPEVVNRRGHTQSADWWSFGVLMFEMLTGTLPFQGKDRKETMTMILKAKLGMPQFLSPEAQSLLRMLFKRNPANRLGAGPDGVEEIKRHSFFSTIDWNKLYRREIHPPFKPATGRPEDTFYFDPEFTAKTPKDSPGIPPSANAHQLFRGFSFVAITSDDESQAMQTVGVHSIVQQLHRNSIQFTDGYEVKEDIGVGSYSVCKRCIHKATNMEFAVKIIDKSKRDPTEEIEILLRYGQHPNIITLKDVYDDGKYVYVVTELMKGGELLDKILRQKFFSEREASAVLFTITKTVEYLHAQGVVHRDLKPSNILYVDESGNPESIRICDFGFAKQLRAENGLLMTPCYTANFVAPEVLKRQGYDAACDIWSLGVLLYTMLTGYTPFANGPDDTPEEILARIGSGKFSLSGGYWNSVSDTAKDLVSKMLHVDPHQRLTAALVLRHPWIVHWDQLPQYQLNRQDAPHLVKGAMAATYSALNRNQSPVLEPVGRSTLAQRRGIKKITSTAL
How it was run: as §1

Chain of JAK1 (P23458 whole entry): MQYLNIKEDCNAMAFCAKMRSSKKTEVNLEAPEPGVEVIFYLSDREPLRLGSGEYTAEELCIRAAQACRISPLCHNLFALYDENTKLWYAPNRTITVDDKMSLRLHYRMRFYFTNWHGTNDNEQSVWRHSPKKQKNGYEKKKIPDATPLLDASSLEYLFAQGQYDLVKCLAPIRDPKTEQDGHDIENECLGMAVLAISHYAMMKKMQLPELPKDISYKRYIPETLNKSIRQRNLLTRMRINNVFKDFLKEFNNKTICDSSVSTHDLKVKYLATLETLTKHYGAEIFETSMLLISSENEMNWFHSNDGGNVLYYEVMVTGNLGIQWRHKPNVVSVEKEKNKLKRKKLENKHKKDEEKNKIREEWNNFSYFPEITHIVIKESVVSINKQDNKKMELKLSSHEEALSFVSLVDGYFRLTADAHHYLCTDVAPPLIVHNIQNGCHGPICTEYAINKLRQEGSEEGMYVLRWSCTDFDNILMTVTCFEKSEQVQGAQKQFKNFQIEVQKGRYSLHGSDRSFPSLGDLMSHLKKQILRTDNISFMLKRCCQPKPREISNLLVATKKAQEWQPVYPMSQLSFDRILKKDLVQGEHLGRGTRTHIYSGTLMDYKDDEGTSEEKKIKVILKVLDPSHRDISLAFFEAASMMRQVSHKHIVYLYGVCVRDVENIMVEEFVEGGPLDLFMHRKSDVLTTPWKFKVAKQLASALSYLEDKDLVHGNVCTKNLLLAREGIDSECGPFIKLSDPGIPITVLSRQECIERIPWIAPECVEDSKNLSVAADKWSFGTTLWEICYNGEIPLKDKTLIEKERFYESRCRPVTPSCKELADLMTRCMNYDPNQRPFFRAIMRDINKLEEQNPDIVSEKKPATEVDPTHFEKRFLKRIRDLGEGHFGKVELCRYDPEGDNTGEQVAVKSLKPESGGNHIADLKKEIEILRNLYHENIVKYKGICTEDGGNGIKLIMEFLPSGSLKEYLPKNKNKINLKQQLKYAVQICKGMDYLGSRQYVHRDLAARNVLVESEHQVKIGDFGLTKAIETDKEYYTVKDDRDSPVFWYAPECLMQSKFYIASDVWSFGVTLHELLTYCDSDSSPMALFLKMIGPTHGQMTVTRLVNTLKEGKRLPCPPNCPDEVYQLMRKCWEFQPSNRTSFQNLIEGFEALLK

| Compound | pIC50 ([1]; cell material: Jurkat cells) | pIC50 ([1]; cell material: Jurkat lysate) | pIC50 ([1]; cell material: Lysate mix) | pIC50 ([2]; cell material: Jurkat cells) | pIC50 ([3]; cell material: Jurkat cells) | pIC50 ([3]; cell material: Jurkat lysate) | pIC50 ([3]; cell material: Lysate mix) | pIC50 ([4]; cell material: Jurkat lysate) | pIC50 ([4]; cell material: Lysate mix) | pIC50 ([5]; cell material: Jurkat cells) | pIC50 ([5]; cell material: Jurkat lysate) | pIC50 ([5]; cell material: Lysate mix) | pIC50 ([2]; cell material: Lysate mix) | pIC50 ([2]; cell material: Jurkat lysate) | pIC50 ([4]; cell material: Jurkat cells) |
| --- | --- | --- | --- | --- | --- | --- | --- | --- | --- | --- | --- | --- | --- | --- | --- |
| O=C(NCCNC(=O)c1cc(Nc2cc(C3CC3)[nH]n2)nc(N2CCN(Cc3ccc(S(=O)(=O)F)cc3)CC2)n1)OC1CC/C=C/CCC1 (stereo unspecified) | < 4.52 | < 4.52 | < 4.52 | 6.66 | 5.43 | < 4.52 | < 4.52 | < 4.52 | < 4.52 | 5.86 | < 4.52 | < 4.52 | – | – | – |
| Cc1cc(Nc2cc(C(=O)NCCNC(=O)OC3CC/C=C/CCC3)nc(N3CCN(Cc4ccc(S(=O)(=O)F)cc4)CC3)n2)n[nH]1 (stereo unspecified) | – | – | < 4.52 | – | – | – | < 4.52 | – | < 4.52 | – | – | < 4.52 | < 4.52 | – | – |
| CCNC(=O)c1cc(Nc2cc(C3CC3)[nH]n2)nc(N2CCN(Cc3ccc(S(=O)(=O)F)cc3)CC2)n1 | – | – | < 4.52 | – | – | – | 4.86 | – | < 4.52 | – | – | 5.28 | 6.06 | – | – |
| CCNC(=O)c1cc(Nc2cc(C)[nH]n2)nc(N2CCN(Cc3ccc(S(=O)(=O)F)cc3)CC2)n1 | – | – | < 4.52 | – | – | – | < 4.52 | – | < 4.52 | – | – | 4.87 | 5.74 | – | – |
| C#CCNC(=O)c1cc(Nc2cc(C3CC3)[nH]n2)nc(N2CCN(Cc3ccc(S(=O)(=O)F)cc3)CC2)n1 | 5.18 | < 4.52 | < 4.52 | 6.96 | 5.94 | < 4.52 | – | < 4.52 | < 4.52 | 5.96 | < 4.52 | 5.44 | 6.32 | 5.99 | 5.32 |
| C#CCNC(=O)c1cc(Nc2cc(C)[nH]n2)nc(N2CCN(Cc3ccc(S(=O)(=O)F)cc3)CC2)n1 | – | – | < 4.52 | – | – | – | < 4.52 | – | < 4.52 | – | – | 5.11 | 5.62 | – | – |
